Measured values from ChEMBL document CHEMBL1156829 (Proc Natl Acad Sci U S A, 2008).

Experiments:
[1] = NOVARTIS: Cytotoxicity against human hepatocellular carcinoma cell line (Huh7); assay type: toxicity, cell-based, Huh-7; details: Huh7 cells (hepatocellular carcinoma cell line)
Plasmodium falciparum [2] = assay: NOVARTIS: Inhibition of Plasmodium falciparum W2 (drug-resistant) proliferation in erythrocyte-based infection assay; assay type: functional, organism-based; details: Plasmodium falciparum, W2; read-out: EC50
Plasmodium falciparum [3] = assay: NOVARTIS: Inhibition of Plasmodium falciparum 3D7 (drug-susceptible) proliferation in erythrocyte-based infection assay; assay type: functional, organism-based; details: Plasmodium falciparum, 3D7

Row | SMILES | CC50 [1] [µM] | EC50 (Plasmodium falciparum [2]) [µM] | EC50 (Plasmodium falciparum [3]) [µM]
1 | CC=C[C@H]1O[C@@](O)([C@@H](C)C(O)C(C)[C@H]2OC(=O)C(OC)=CC(C)=C[C@@H](C)[C@H](O)C(CC)[C@@H](O)[C@H](C)CC(C)=CC=C[C@@H]2OC)C[C@@H](O[C@H]2C[C@@H](O)[C@H](OC(N)=O)[C@@H](C)O2)[C@@H]1C (some centres not stated) | > 10 | > 1.25 | 1.18
2 | CC(=O)Nc1cccc(NC(=O)C(F)(F)F)c1 | > 10 | > 1.25 | 1.19
3 | CSc1nnc(CN2CCSCC2)n1C | > 10 | > 1.25 | 2.03
4 | COc1ccccc1/C=C/CN(CCN1CCN(S(=O)(=O)c2cccc(C(F)(F)F)c2)CC1)C(=O)Cc1ccccc1 | > 10 | > 1.25 | 1.32
5 | Cc1ccccc1N1C(=O)N(c2ccccc2)C2CS(=O)(=O)CC21 (configuration not stated) | > 10 | > 1.25 | 1.92
6 | CCOc1ccccc1NC(=O)C1C(c2ccccc2)=C1c1ccccc1 | > 10 | > 1.25 | 1.8
7 | C=CCNC(=S)N1CCN(c2ccc([N+](=O)[O-])cc2)CC1 | > 10 | > 1.25 | 2.37
8 | Cc1cc(N2CCCCC2)nc2ccc(NC(=O)c3cncc(Br)c3)cc12 | > 10 | > 1.25 | 1.36
9 | c1ccc(Oc2ccc(Nc3nc4nonc4nc3Nc3ccc(Oc4ccccc4)cc3)cc2)cc1 | > 10 | > 1.25 | 1.76
10 | c1cncc(CCNc2nccn3c(-c4cccc5ccccc45)cnc23)c1 | > 10 | > 1.25 | 1.24
11 | CN(C)CCCNc1ncc(C(=O)NCCc2ccccc2)c(NCC2CCCCC2)n1 | > 10 | > 1.25 | 1.24
12 | CCCc1cc2c(=O)c(-c3cc4ccccc4o3)coc2cc1OC(C)C(=O)OCC (configuration not stated) | > 10 | > 1.25 | > 1.17
13 | c1ccc(COCC[N+]2(Cc3ccccc3)CCCCC2)cc1 | > 10 | > 1.25 | > 1.16
14 | O=C1/C(=C/c2ccccc2)Oc2c1ccc(O)c2CN1CCCCC1 | > 10 | 1.26 | > 1.25
15 | CCCCN1C=CC=C/C1=C\c1sc2ccccc2[n+]1CC | 1.8 | 0.226 | 0.12
16 | Cc1cc(C)c2nc(NS(=O)(=O)c3cccc(C(=O)O)c3)sc2c1 | > 10 | 1.25 | 0.693
17 | CCOC(=O)c1sc(=S)n(-c2ccc(N(C)C)cc2)c1N | > 10 | > 1.27 | > 1.19

Row | SMILES | CC50 [1] [µM] | EC50 (Plasmodium falciparum [2]) [µM] | EC50 (Plasmodium falciparum [3]) [µM]
18 | CC(C(=O)NN=C1CCN(C)CC1)N(c1ccccc1)S(C)(=O)=O (configuration not stated) | > 10 | 1.27 | > 1.25
19 | Cc1c(C(=O)N2CCN(c3ccc([N+](=O)[O-])cc3)CC2)sc2ncnc(N(C)c3ccccc3)c12 | > 10 | > 1.25 | 1.65
20 | O=C1Cc2c([nH]c3ccc(OCc4ccccc4)cc23)C2CC=CCC12 (configuration not stated) | > 10 | > 1.25 | 1.59
21 | C=CCOC(=O)C1=C(C)N2CCSC2=C(C#N)C1c1ccco1 (configuration not stated) | > 10 | > 1.25 | 1.21
22 | O=C(Nc1ccc2c3c(cccc13)CC2)c1cccc2ccccc12 | > 10 | > 1.25 | > 1.2
23 | COc1cc(C(=O)/C=C/Nc2ccc(N(C)C)cc2)cc(OC)c1OC | > 10 | > 1.25 | > 1.2
24 | Cc1ccc2oc(=O)c3cnn(CC(=O)Nc4ccc(F)cc4Cl)c3c2c1 | > 10 | > 1.25 | > 1.15
25 | COc1cccc(/C=C2/SC(=Nc3ccccc3)NC2=O)c1OC | > 10 | > 1.25 | > 1.15
26 | CC(C)CNC(=O)c1cnc(NCCCN2CCCCC2C)nc1Nc1ccccc1 (configuration not stated) | > 10 | > 1.25 | 1.15
27 | COc1ccc(-n2cc(-c3ccc(C)cc3)nc2SCC(=O)Nc2ccc(C)cc2)cc1 | > 10 | > 1.25 | 2.23
28 | CCOC(=O)C(=O)N1c2ccc(C)cc2C(C)(c2ccccc2)CC1(C)C (configuration not stated) | > 10 | > 1.25 | 2.13
29 | CCOC(=O)c1c(NC(=O)CSc2nc3c(c(=O)n(C)c(=O)n3C)n2C(C)C)sc2c1CCCC2 | > 10 | > 1.25 | 1.56
30 | CCN1/C(=C/c2cccc[n+]2C)Sc2cc(NC(C)=O)ccc21 | > 10 | > 1.25 | 1.4
31 | COc1ccc(C2NCCc3c2[nH]c2ccccc32)cc1CSc1nc2ccccc2[nH]1 (configuration not stated) | 20.4 | 2.59 | 1.75
32 | Clc1ccc2[nH]c3c(NCCC4=CCCCC4)ncnc3c2c1 | 15.8 | 2 | 0.988
33 | CCN1/C(=C\C=C\C2=[N+](C)c3ccccc3C2(C)C)N(c2ccccc2)c2ccccc21 | > 10 | 1.26 | 1.41
34 | COc1ccc(-n2nc(C(=O)NCC(=O)Nc3ccc(F)cc3)c3ccccc3c2=O)cc1Cl | > 10 | > 1.25 | > 1.14
